In patent US12534496B2, “Polymorphic forms of Cyclo (-His-Pro) and methods of use to treat kidney disease” (NovMetaPharma Co., Ltd., priority 2018, dated 2026):
“Also recorded” adds a separate entry of the source.

How the values were obtained:
Type in all cases: physicochemical
[1] = Solution state chemical stability in water/acetone and EtOH/water/MtBE (HPLC purity); details: water/acetone and EtOH/H2O/MtBE, 50 °C for 20 h
Description: Solution state chemical stability of the compound was studied in different solvent systems at different temperatures (Table 4). The solution was held at 50° C. and 80° C., and purity of the solution was tracked. The compound was generally stable for at least 20 hours.

[2] = Variable temperature and humidity XRPD (VT-/VH-XRPD)
Description: VT-/VH-XRPD analysis was carried out on a Philips X'Pert ProMultipurpose diffractometer equipped with a temperature and humidity chamber. The samples were scanned between 4 and 35.99° 2θ using Cu K radiation (α1λ=1.54060 Å; α2=1.54443 Å; β=1.39225 Å; α1:α2 ratio=0.5) running in Bragg-Brentano geometry (step size 0.008° 2θ) using 40 kV/40 mA generator settings. Measurements were performed at each step of the humidity profile below:
Program: 40% RH/ambient temperature—initial scan
• 0% RH/ambient temperature—initial scan, 1-hour hold, scan • 0% RH/80° C.—initial scan, 20-minute hold, scan • 0% RH/80° C.—initial scan, 80-minute hold, scan 11. High Performance Liquid Chromatography-Ultraviolet Detection (HPLC-UV) Instrument: Dionex Ultimate 3000 Column: LC/168 X-Bridge Phenyl Column (150 mm×4.6 mm×3.5 μm) Column Temperature: 30° C. Autosampler Temperature: 5° C. UV wavelength: 220 nm Injection Volume: 5 μL Flow Rate: 1 ml/min Mobile Phase A: 10 mM Ammonium acetate Mobile Phase B: Acetonitrile Diluent: 0.1% TFA in water Gradient program: […]

[3] = 8-week stability assessment at 40 °C/75% RH (XRPD, appearance, chiral HPLC); details: for Chiral Purity: chiral HPLC
Description: XRPD analysis was carried out on a PANalytical X'pert pro, scanning the samples between 3 and 35° 2θ. The material was gently ground to release any agglomerates and loaded onto a multi-well plate with Kapton or Mylar polymer film to support the sample. The multi-well plate was then placed into the diffractometer and analyzed using Cu K radiation (α1λ=1.54060 Å; α2=1.54443 Å; β=1.39225 Å; α1: α2 ratio=0.5) running in transmission mode (step size 0.0130° 2θ) using 40 kV/40 mA generator settings.
13. Chiral HPLC Column: Daicel IC (5.0 um, 250*4.6 mm) Column Temperature: 30° C. Injection Volume: 5 μL Flow Rate: 1.0 mL/min Mobile Phase A: 0.01% DEA in n-Hexane Mobile Phase B: EtOH:MeOH=2:8 (v/v) Diluent: Acetonitrile PDA Range: 220 nm Gradient program: […]

[4] = Drug substance stability study, 40±2 °C/75±5% RH (appearance, assay, impurities, chiral, water content, XRPD); details: for XRPD: reference standard of Pattern 2
Description: Packaging: Sample at each individual time point was packaged into double Antistatic LDPE bags both secured with cable ties. The sample packed for the same storage condition were stored together within a fiber drum, and closed with metal lid. All packages were prepared in the same fashion and labeled.
Time zero will be the day samples are placed on station. Initial testing results were from the release testing as long as samples are put on station within 30 days of the release test date, otherwise, initial was repeated.
Study Requirements: Total 22.5 g sample (Total 21 g sample if initial test is not needed): • 1.5 g for initial test if needed; • 21 g sample will be divided into 14 parts, 1.5 g for each parts, sample for each part should be weighed into double Antistatic LDPE bags both secured with cable ties. The stability samples for each storage condition are stored together within a fiber drum, closed with metal lid, and then stored at 25±2° C./60+5% RH (9 bags) and 40±2° C./75±5% RH (5 bags), respectively. Sampling Time:
Samples stored not more than 6 months were pulled on schedule date or within 2 business days after the scheduled date. Samples stored more than 6 months were pulled within +2 business days of the scheduled date.
Stability samples stored for one month to one year, and greater than one year were analyzed and completed within 10 and 20 business days after the samples pulled out from stability chamber, respectively. If time zero testing was performed, it was analyzed within 10 business days after study initiation.

[5] = 1-week stability assessment (40 °C/75% RH, 80 °C, ambient light; XRPD, HPLC purity)

## O=C1N[C@@H](Cc2cnc[nH]2)C(=O)N2CCC[C@@H]12 [Pattern 2, Pyrrolo [1,2-a]pyrazine-1,4-dione, hexahydro-3-(1H-imidazol-5-ylmethyl)-, hydrate (1:1), (3S, 8aS)-]
[1]
  Chemical stability under both crystallization conditions: stable
[2]; Run 1: 40% RH, ambient temperature
  VT/VH-XRPD Identity: stable; also recorded: Pattern 2 was present
[2]; Run 1: 40% RH, ambient temperature, listed as CHP Pattern 2
  VT/VH-XRPD Identity: Pattern 2
[2]; Run 2: 0% RH, ambient temperature, 1-hour hold
  VT/VH-XRPD Identity: remains as Pattern 2; also recorded: Pattern 2 remained
[2]; Run 2: 0% RH, ambient temperature, 1-hour hold, listed as CHP Pattern 2
  VT/VH-XRPD Identity: Pattern 2
[2]; Run 2: 0% RH, ambient temperature, 1-hour hold, listed as CHP pattern 2
  VT/VH-XRPD Identity: Pattern 2 input material remained
[2]; Run 3: 0% RH, 80 °C, 20-minute hold
  VT/VH-XRPD Identity: converted Pattern 2 to Pattern 1; also recorded: pure Pattern 1
[2]; Run 3: 0% RH, 80 °C, 20-minute hold, listed as CHP Pattern 2
  VT/VH-XRPD Identity: Pattern 1
[2]; Run 3: 0% RH, 80 °C, 20-minute hold, listed as CHP pattern 2
  VT/VH-XRPD Identity: changed form which was assigned as pure pattern 1
[2]; Run 4: 0% RH, 80 °C, 80-minute hold
  VT/VH-XRPD Identity: pure Pattern 1 remained
[2]; Run 4: 0% RH, 80 °C, 80-minute hold, listed as CHP Pattern 2
  VT/VH-XRPD Identity: Pattern 1
[2]; Run 4: 0% RH, 80 °C, 80-minute hold, listed as CHP pattern 2
  VT/VH-XRPD Identity: Pure pattern 1 remained
[3]; 2-week
  Appearance: White
  Chiral Purity: >99.9%
[3]; 4-week
  Appearance: White
  Chiral Purity: 99.9%
[3]; 4 weeks, listed as CHP pattern 2
  XRPD form after storage: no change in form
[3]; 8-week
  Appearance: White
[3]; 8 weeks
  XRPD form after storage: no change in form
[3]; 8 weeks, listed as CHP pattern 2
  XRPD form after storage: no change in form
[3]; 8 weeks, listed as pattern 2 CHP
  XRPD form after storage: pattern 2 prevailed
[3]; Initial
  Appearance: White
  Chiral Purity: 99.9%
[3]; two weeks (14 days), listed as CHP pattern 2
  XRPD form after storage: no change in form
[4]; 40 ± 2° C./75 ± 5% RH, 1M
  Appearance: Off-white
  Assay by HPLC: 103.2%
  Chiral, HPLC: chiral impurity (D, D) optical isomer: (D, D):N, D
  Chiral, HPLC: chiral impurity (D, L) optical isomer: (D, L):N, D
  Chiral, HPLC: chiral impurity (L, D) optical isomer: (L, D):N, D
  Chiral, HPLC: chiral purity: 100.0%
  Impurities, HPLC: H-His-OH: 0.08%
  Impurities, HPLC: each other individual impurity: individual < 0.05%
  Water content (KF): 7.2%
[4]; 40 ± 2° C./75 ± 5% RH, 3M
  Appearance: Off-white
  Assay by HPLC: 103.3%
  Chiral, HPLC: chiral impurity (D, D) optical isomer: (D, D):N, D
  Chiral, HPLC: chiral impurity (D, L) optical isomer: (D, L):N, D
  Chiral, HPLC: chiral impurity (L, D) optical isomer: (L, D):N, D
  Chiral, HPLC: chiral purity: 100.0%
  Impurities, HPLC: H-His-OH: 0.07%
  Impurities, HPLC: each other individual impurity: individual < 0.05%
  Water content (KF): 7.2%
[4]; 40 ± 2° C./75 ± 5% RH, 6M
  Appearance: Off-white
  Assay by HPLC: 102.4%
  Chiral, HPLC: chiral impurity (D, D) optical isomer: (D, D):N, D
  Chiral, HPLC: chiral impurity (D, L) optical isomer: (D, L):N, D
  Chiral, HPLC: chiral impurity (L, D) optical isomer: (L, D):0.5%
  Chiral, HPLC: chiral purity: 99.9%
  Impurities, HPLC: C16081735-D-isomer: isomer: 0.05%
  Impurities, HPLC: H-His-OH: 0.06%
  Water content (KF): 7.2%
  XRPD: Conform to reference
[4]; Initial (time zero)
  Appearance: Off-white
  Assay by HPLC: 103.4%
  Chiral, HPLC: chiral impurity (D, D) optical isomer: (D, D):N, D
  Chiral, HPLC: chiral impurity (D, L) optical isomer: (D, L):N, D
  Chiral, HPLC: chiral impurity (L, D) optical isomer: (L, D):N, D
  Chiral, HPLC: chiral purity: 100.0%
  Impurities, HPLC: H-His-OH: 0.07%
  Impurities, HPLC: each other individual impurity: individual < 0.03%
  Water content (KF): 7.4%
  XRPD: Conform to reference
[5]; HPLC, 40 °C/75% RH
  Purity after 1 week: 99.5%
[5]; HPLC, 80 °C
  Purity after 1 week: 99.4%
[5]; HPLC, Ambient
  Purity after 1 week: 99.5%
[5]; HPLC, before storage
  Purity of starting material: 99.5%
[5]; all conditions (40 °C/75% RH, 80 °C, ambient light)
  Change in HPLC purity after 7 days: no drop in purity; also recorded: No change in purity
